Measurements from patent US8772347B2, “Use of a pharmaceutical composition for promoting proliferation and/or migration of skin cells, and for improving wound healing in a subject” (Kaohsiung Medical University, priority 2011, dated 2014).

Assays:
[1] = test system: c-Jun and ERK; experiment: Western blotting, human fibroblasts, phosphorylation; format: cell-based; conditions: compared with cells only treated with PMA
Experimental: Signal transduction of skin cells treated with 6-DG is studied. Firstly, 6-DG of different concentration is incubated with 1×10^6 human fibroblasts. After being incubated for 24 hr, the human fibroblasts are washed twice with phosphate-buffered saline (PBS), and then lysed by a lysis buffer containing 50 mM Tris-HCl, pH7.5, 137 mM sodium chloride, 1 mM EDTA, 1% Nonidet P-40, 10% glycerol, 0.1 mM sodium orthovanadate, 10 mM sodium pyrophosphate, 20 mM β-glycerophosphate, 50 mM sodium fluoride, 1 mM phenylmethysulfonyl fluoride, 2 mM leupeptin, and 2 μg/ml aprotinin. A cell extract having the lysed human fibroblasts is separated by a centrifugal force of 10,000 g at 4° C., and supernant of the cell extract is collected for determining protein concentration using Bicinchoninic acid protein assay kit (Pierce, Rockford, Ill., USA). Equal concentration of protein in the supernant is separated by SDS-PAGE, and then blotted to a PVDF membrane (PALL Life Science, Ann Arbor, Mich., USA). After being blocked for 1 hr in phosphate-buffered saline & tween (PBST) containing 5% non-fat milk, primary antibodies are added to the membrane. The membrane is washed with PBST twice, and next secondary antibodies against the primary antibodies are added to the membrane. Finally, signals on the membrane are visualized by enhanced chemiluminescence substrate (PerkinElmer, USA). […]

[2] = test system: human fibroblasts; experiment: MTT assay, proliferation of skin cells; format: cell-based; conditions: for proliferation of human fibroblasts compared with control: 24 hr, MTT, FIG. 2(A)
Experimental: (§1) Skin cells are cultured following the method provided in Exp Dermatol 2011; 20: 242-8. Human skin fibroblasts are derived from Chung-Ho Memorial Hospital, Kaohsiung Medical University, Taiwan, ROC, and incubated in Dulbecco's Modified Eagle Medium including 10% fetal calf serum, 100 μg/ml streptomycin, and 250 ng/ml amphotericin B. Human keratinocytes are isolated from foreskin primary culture and cultured in Keratinocyte-SFM Medium supplemented with Bovine Pituitary Extract and EGF. All of these cells are incubated at 37° C. in a humidified incubator with 5% CO2 atmosphere.
(§2) 3-(4,5-cimethylthiazol-2-yl)-2,5-diphenyl tetrazolium bromide assay (MTT assay) is performed to analyze the effect on the proliferation of skin cells treated with different 6-DG concentration (dissolved in DMSO). Firstly, 6-DG of different concentration is seeded in a 96-well culture dish cultured with skin cells and incubated for 24 hr. MIT solution (5 mg/ml, dissolved in PBS) is added into the dish and incubated again at 37° C. for 2 hr. Medium in the dish is removed, 0.05 ml DMSO is added to the dish, and then the dish is shaken in a dark position for 20 min. Finally, the OD value of each well of the dish is calculated by 595 nm-wavelength light (UV-vis, BioTek, USA). Considering whether DMSO has effect on the skin cell proliferation or not, skin cells treated with DMSO are used as a control.

[3] = test system: human keratinocytes; experiment: MTT assay, proliferation of skin cells; format: cell-based; conditions: 24 hr, FIG. 2(B)
Experimental: as §1, §2

[4] = test system: TGF-β; experiment: ELISA, growth factor expression in conditioned medium of fibroblasts; format: cell-based, human; conditions: 24 hr, medium supernatant, mean ± SD
Experimental: as §1
(§3) Enzyme-linked immunoassay (ELISA) is performed to analyze the effect on the growth factor expression of skin cells treated with different 6-DG concentration (dissolved in DMSO). Firstly, 6-DG of different concentration is incubated in a 6-well culture dish with skin cells cultured in a conditioned medium for 24 hr. Supernant of the conditioned medium is collected for analyzing the concentration of TGF-β, VEGF, and PDGF-αβ following the directions provided by DuoSet ELISA development kits (R&D Systems, USA). With regard to whether DMSO has effect on the growth factor expression or not, skin cells treated with DMSO are used as a control.

[5] = test system: PDGF-αβ; experiment: as above; format: cell-based, human; conditions: 24 hr, medium supernatant, mean ± SD
Experimental: as §1, §3

[6] = test system: VEGF; experiment: as above; format: cell-based, human; conditions: 24 hr, medium supernatant, mean ± SD
Experimental: as §1, §3

[7] = test system: human fibroblasts; experiment: Proliferation of human fibroblasts with or without PMA (FIG. 5(A)); format: cell-based
[8] = test system: human fibroblasts; experiment: Migration of skin cells into wound area (scratch assay, TScratch); format: cell-based
Experimental: as §1
(§4) An assay disclosed in Process Biochemistry 2010; 45:1865-72 is performed to analyze the effect on migration of skin cells treated with different 6-DG concentration (dissolved in DMSO). 5×10^5 skin cells are seeded in a 12-well culture dish and grown to complete confluence. Prior to adding 6-DG of different concentration to the dish, a clean […] would area is created on the skin cells. The wound area is photographed using an inverted phase-contrast microscopy (TE2000-U; Nikon, Tokyo, Japan) equipped with NIS-Elements software (Nikon), and the skin cell migration in the wound area is calculated by the free software “TScratch” (www.cse-lab.ethz.ch/software.html). Considering whether DMSO has effect on the skin cell migration or not, skin cells treated with 0.5% DMSO are used as a control.

[9] = test system: human keratinocytes; experiment: as above; format: cell-based
Experimental: as §1, §4

[10] = test system: TGF-β; experiment: ELISA, growth factor expression in conditioned medium of keratinocytes; format: cell-based, human; conditions: 24 hr, medium supernatant, mean ± SD
Experimental: as §1, §3

[11] = test system: PDGF-αβ; experiment: as above; format: cell-based, human; conditions: 24 hr, medium supernatant, mean ± SD
Experimental: as §1, §3

[12] = test system: VEGF; experiment: as above; format: cell-based, human; conditions: 24 hr, medium supernatant, mean ± SD
Experimental: as §1, §3

[13] = test system: MMP-1; experiment: Collagen zymography, MMP-1 activity of human fibroblasts; format: cell-based
Experimental: Collagen zymography is performed to analyze the effect on the MMP-1 activity of skin cells treated with 6-DG. After electrophoresis of the foregoing lysed cell extract in SDS-PAGE containing 0.1% collagen, the SDS-PAGE is reacted with 2.5% Triton X-100 to remove SDS and make the protein of the lysed extract folded, and then incubated with a Tris-base buffer containing NaCl, CaCl2, and ZnCl2. Finally, this gel is stained with Coomassie Brilliant Blue R250, and the signal at 52 kDa […] position on the gel is calculated by Gel Pro v4.0 software (Media Cybernetics, Silver Spring, Md., USA).
“BACKGROUND OF THE INVENTION” of the content is said that PMA, an activator for protein kinase C, phosphorylates JNK and ERK to produce MMP-1, and inhibits TIMP-1. For confirming the effect on the MMP-1 activity of skin cells treated with 6-DG, the human fibroblasts are incubated with 20 ng/ml PMA prior to being treated with 6-DG.

[14] = test system: collagen; experiment: Sirius red collagen staining, human fibroblasts; format: cell-based; conditions: for collagen expression level of fibroblasts: FIG. 5(B); for collagen expression level per human fibroblast: FIG. 5(C)
Experimental: Sirius red collagen staining is performed to analyze the effect on the collagen expression of skin cells treated with 6-DG 6-DG of different concentration is added to a 24-well culture dish cultured with human fibroblasts. Medium in the dish is removed and the fibroblasts are washed with PBS twice. 100 μl Sirius Red is added to each well of the dish and incubated at room temperature for 1 hr. After removing the unstained Sirius Red, the fibroblasts are washed with 100 μl 0.1N HCl for at least five times, and then 100 μl 0.1N NaOH is used to extract the stained Sirius Red. Finally, the OD value of the extracted stained Sirius Red is calculated by 540 nm-wavelength light. As the described in “BACKGROUND OF THE INVENTION,” it is said that PMA, an activator for protein kinase C, phosphorylates JNK and ERK to produce MMP-1, and inhibits TIMP-1. With regard to the effect on the collagen expression of skin cells treated with 6-DG, the human fibroblasts are incubated with 20 ng/ml PMA prior to being incubated with 6-DG.

[15] = test system: MMP-1; experiment: Western blotting, human fibroblasts; format: cell-based; conditions: compared with cells only treated with PMA
Experimental: (§5) Signal transduction of skin cells treated with 6-DG is studied. Firstly, 6-DG of different concentration is incubated with 1×10^6 human fibroblasts. After being incubated for 24 hr, the human fibroblasts are washed twice with phosphate-buffered saline (PBS), and then lysed by a lysis buffer containing 50 mM Tris-HCl, pH7.5, 137 mM sodium chloride, 1 mM EDTA, 1% Nonidet P-40, 10% glycerol, 0.1 mM sodium orthovanadate, 10 mM sodium pyrophosphate, 20 mM β-glycerophosphate, 50 mM sodium fluoride, 1 mM phenylmethysulfonyl fluoride, 2 mM leupeptin, and 2 μg/ml aprotinin. A cell extract having the lysed human fibroblasts is separated by a centrifugal force of 10,000 g at 4° C., and supernant of the cell extract is collected for determining protein concentration using Bicinchoninic acid protein assay kit (Pierce, Rockford, Ill., USA). Equal concentration of protein in the supernant is separated by SDS-PAGE, and then blotted to a PVDF membrane (PALL Life Science, Ann Arbor, Mich., USA). After being blocked for 1 hr in phosphate-buffered saline & tween (PBST) containing 5% non-fat milk, primary antibodies are added to the membrane. The membrane is washed with PBST twice, and next secondary antibodies against the primary antibodies are added to the membrane. Finally, signals on the membrane are visualized by enhanced chemiluminescence substrate (PerkinElmer, USA). As the description of “BACKGROUND OF THE INVENTION,” it is said that PMA, an activator for protein kinase C, phosphorylates JNK and ERK to produce MMP-1 and inhibits TIMP-1. For further confirming the effect on signal transduction of skin cells treated with 6-DG, the human fibroblasts are incubated with 20 ng/ml PMA prior to being treated with 6-DG.

[16] = test system: TIMP-1; experiment: Western blotting, human fibroblasts; format: cell-based
Experimental: as §5

[17] = skin cells (fibroblasts and keratinocytes), based on the volume of the composition
[18] = 20 ng/ml PMA prior to 6-DG, compared with PMA only
[19] = 6-DG, compared with untreated (control) and PMA only

CCCCCC(=O)/C=C(O)/C=C/c1ccc(O)c(OC)c1 [6-DG, 6-dehydrogingerdione]
phosphorylation level of c-Jun and ERK ([1]; 20 ng/ml PMA prior to 6-DG): less phosphorylation level of c-Jun and ERK | phosphorylation level of c-Jun and ERK ([1]; 6-DG): less phosphorylation level of c-Jun and ERK | proliferation of human fibroblasts compared with control ([2]; 2 μM 6-DG): obviously proliferated | proliferation of human fibroblasts compared with control ([2]; 50 μM 6-DG): obviously proliferated | proliferation of human fibroblasts compared with control ([2]; 100 μM 6-DG): not obviously proliferated | effective concentration for promoting skin cell proliferation [2, 17]: 2 to 50 µM | proliferation of human keratinocytes compared with control ([3]; 2 μM 6-DG): obviously proliferated | proliferation of human keratinocytes compared with control ([3]; 50 μM 6-DG): obviously proliferated | proliferation of human keratinocytes compared with control ([3]; 100 μM 6-DG): not obviously proliferated | TGF-β ([4]; 6-DG 2 μM): 984.5 ± 21.6 pg/mL | TGF-β ([4]; 6-DG 10 μM): 1003.3 ± 24.0 pg/mL | PDGF-αβ ([5]; 6-DG 2 μM): 7.1 ± 0.1 pg/mL | PDGF-αβ ([5]; 6-DG 10 μM): 5.3 ± 0.1 pg/mL | VEGF ([6]; 6-DG 2 μM): 432.0 ± 14.6 pg/mL | VEGF ([6]; 6-DG 10 μM): 294.5 ± 14.6 pg/mL | proliferation of fibroblasts [7, 18]: still have obvious proliferation | proliferation of fibroblasts [7, 19]: obvious proliferation | migration of human fibroblasts to the wound area ([8]; 2 μM 6-DG for 24 hr): more obvious | migration of human fibroblasts to the wound area ([8]; 10 μM 6-DG, compared with 2 μM): less obvious than that after being treated with 2 μM | effective concentration for promoting migration of skin cells [8, 17]: 2 to 50 µM | migration of human fibroblasts to the wound area compared with control ([8]; treated with 6-DG, FIGS. 3(A)-3(B)): obviously migrate to the wound area | migration of human keratinocytes to the wound area ([9]; 2 μM 6-DG for 24 hr): more obvious | migration of human keratinocytes to the wound area ([9]; 10 μM 6-DG, compared with 2 μM): less obvious than that after being treated with 2 μM | migration of human keratinocytes to the wound area compared with control ([9]; treated with 6-DG, FIGS. 3(C)-3(D)): obviously migrate to the wound area | TGF-β ([10]; 6-DG 2 μM): 822.8 ± 15.3 pg/mL | TGF-β ([10]; 6-DG 10 μM): 768.0 ± 9.6 pg/mL | PDGF-αβ ([11]; 6-DG 2 μM): 5.84 ± 0.2 pg/mL | PDGF-αβ ([11]; 6-DG 10 μM): 4.55 ± 0.1 pg/mL | VEGF ([12]; 6-DG 2 μM): 344.3 ± 9.5 pg/mL | VEGF ([12]; 6-DG 10 μM): 292.8 ± 7.3 pg/mL | activity of MMP-1 ([13]; 20 ng/ml PMA prior to 6-DG, compared with fibroblasts only treated with PMA): lower activity of MMP-1 | activity of MMP-1 ([13]; 6-DG, compared with fibroblasts only treated with PMA): lower MMP-1 activity | activity of MMP-1 ([13]; 6-DG, compared with fibroblasts untreated, FIGS. 6(A)-6(B)): no obvious difference | collagen expression level of fibroblasts [14, 18]: still have up-regulated expression of collagen | collagen expression level per human fibroblast [14, 18]: still has up-regulated expression of collagen | collagen expression level of fibroblasts [14, 19]: up-regulated expression of collagen | collagen expression level per human fibroblast [14, 19]: up-regulated expression of collagen | expression level of MMP-1 ([15]; 20 ng/ml PMA prior to 6-DG): down-regulated expression level of MMP-1 | expression level of MMP-1 ([15]; 6-DG): down-regulated expression level of MMP-1 | expression of TIMP-1 ([16]; 6-DG 24 hr, compared with fibroblasts untreated): up-regulate the expression of TIMP-1 | expression level of TIMP-1 ([16]; 6-DG, compared with cells only treated with PMA): up-regulated expression level of TIMP-1
